Test results: patent publication US9526737B2, “Oxysterols for activation of hedgehog signaling, osteoinduction, antiadipogenesis, and Wnt signaling” (THE REGENTS OF THE UNIVERSITY OF CALIFORNIA, priority 2007, dated 2016)
Like-named read-outs stand apart in the source and are kept apart here.

Legend:
[1] = test system: M2-10B4 marrow stromal cells; test: Alkaline phosphatase (ALP) activity assay; settings: for fold induction at 2.5 µM / fold induction at 5 µM / fold induction at 1.25 µM: M210B4, 72 h; for Alkaline phosphatase activity versus control vehicle (significance): 1.25 μM, 3 days, p>0.05
Procedure: The protocol is a modification of alkaline phosphatase assay kit from Sigma. Cells are cultured in 24-well tissue culture plates. After treatments with test agents, cells are rinsed twice with PBS and scraped into 200 ml of lysis buffer (0.2% NP-40 in 1 mM MgCl2) and sonicated for 10 seconds. Next, 1 ml of reaction mixture is added to each well. Reaction mixture is 221 alkaline buffer (Sigma): stock substrate solution (1:1). Stock substrate solution is prepared by dissolving 40 mg of Sigma 104 phosphatase substrate in 10 ml of ddH2O. After addition of reaction mixture to lysed cells, incubation is performed for 30 minutes at 37 C. […] The reaction is stopped by the addition of 12 ml of 1N NaOH to each well, and absorbance is determined at 405 nm. Alkaline phosphatase activity is calculated using p-nitrophenol as a standard, according to Sigma kit's instructions. Results are normalized to total protein in each well determined using the Bio-Rad protein assay solution (Bio-Rad Laboratories).
M2-10B4 marrow stromal cells were treated with oxysterols at various doses for 3 days after which they were collected and analyzed by calorimetric assay for alkaline phosphatase activity (a marker of osteoblastic differentiation) (Table 1); the alkaline phosphatase assay described above was used.
M2-10B4 marrow stromal cells were treated with oxysterols at various doses for 3 days after which they were collected and analyzed by colorimetric assay for alkaline phosphatase activity (a marker of osteoblastic differentiation) (Table 2); the alkaline phosphatase assay described above was used.
M2-10B4 bone marrow stromal cells were treated in culture with control vehicle (C) or various oxysterol (Oxy) molecules as indicated at either 1.25 (1) or 2.5 (2) μM concentrations. After 3 days of treatment, alkaline phosphatase activity as a measure of early osteogenic differentiation of cells was measured in whole cell lysates (See FIG. 9 and Table 3); the alkaline phosphatase assay described above was used.

marrow stromal cells = test: Osteoinductive properties (osteoblast differentiation markers: ALP activity, osteocalcin mRNA, mineralization); assay type: cell-based; settings: induction of osteoblast differentiation markers
Description: Oxysterols discussed in this application include those designated as Oxy22, Oxy26, Oxy27, Oxy28, Oxy39, Oxy40, Oxy41, Oxy42, Oxy48, Oxy49, Oxy20, Oxy34, Oxy36, Oxy38, Oxy50, Oxy51, Oxy52, and Oxy53. At least the following oxysterols have been identified as osteoinductive: Oxy22, Oxy26, Oxy27, Oxy28, Oxy39, Oxy40, Oxy41, Oxy42, Oxy48, Oxy49, Oxy50, Oxy51, Oxy52, and Oxy53. The osteoinductive properties of these oxysterols is shown by their ability to induce the expression of various osteoblast differentiation markers, including alkaline phosphatase activity, osteocalcin mRNA expression, and mineralization. These oxysterols are activators of the hedgehog signaling pathway.

[2] = test system: Patched (Ptch) mRNA expression; test: Q-RT-PCR for Patched (Ptch) mRNA expression; assay type: cell-based; settings: M2 cells pre-treated 2 h with inhibitor, then 5 μM SS for 48 h
Procedure: Total RNA was extracted with the RNA isolation kit from Stratagene (La Jolla, Calif.) according to the manufacturer's instructions. RNA was DNase-treated using the DNA-free kit from Ambion, Inc. (Austin, Tex.). 3 μg of RNA was reverse-transcribed using reverse transcriptase from Stratagene (La Jolla, Calif.) to make single stranded cDNA. The cDNAs were mixed with Qi SYBR Green Supermix from Bio-Rad Laboratories (Hercules, Calif.) for quantitative RT-PCR using a Bio-Rad I-cycler IQ quantitative thermocycler. All PCR samples were prepared in triplicate or quadruplicate. Each sample was added to duplicate wells of a 96-well plate. After 40 cycles of PCR, melt curves were analyzed in order to ensure primer specificity, and the identity of all PCR products were verified by sequencing and comparing with the complete mRNA sequence obtained from PubMed's GenBank. Fold changes in gene expression were calculated using the ΔΔCt method (14). All primers were designed using the Beacon Designer software from Bio-Rad Laboratories (Hercules, Calif.). […]
M2 cells were pre-treated for 2 h with Dkk-1 or vehicle. […] RNA was isolated and analyzed for Nkd2 (C), Wif-1 (D), and Ptch (E) expression (See FIGS. 5C-5E).

[3] = test system: Wnt Inhibitory factor-1 (Wif-1) mRNA expression; assay type: cell-based; settings: M2 cells pre-treated 2 h with inhibitor, then 5 μM SS for 48 h
Procedure: (§1) Total RNA was extracted with the RNA isolation kit from Stratagene (La Jolla, Calif.) according to the manufacturer's instructions. RNA was DNase-treated using the DNA-free kit from Ambion, Inc. (Austin, Tex.). 3 μg of RNA was reverse-transcribed using reverse transcriptase from Stratagene (La Jolla, Calif.) to make single stranded cDNA. The cDNAs were mixed with Qi SYBR Green Supermix from Bio-Rad Laboratories (Hercules, Calif.) for quantitative RT-PCR using a Bio-Rad I-cycler IQ quantitative thermocycler. All PCR samples were prepared in triplicate or quadruplicate. Each sample was added to duplicate wells of a 96-well plate. After 40 cycles of PCR, melt curves were analyzed in order to ensure primer specificity, and the identity of all PCR products were verified by sequencing and comparing with the complete mRNA sequence obtained from PubMed's GenBank. Fold changes in gene expression were calculated using the ΔΔCt method (14). All primers were designed using the Beacon Designer software from Bio-Rad Laboratories (Hercules, Calif.). Primers used are as follows: OCN (5′-[…]-3′ (SEQ ID NO: 1) and 5′-[…]-3′ (SEQ ID NO: 2)), Axin2(5′[…]-3′ (SEQ ID NO: 3) and 5′-[…]-3′ (SEQ ID NO: 4)), Cyclin D1(5′-[…]-3′ (SEQ ID NO: 5) and 5′-[…]-3′ (SEQ ID NO: 6)), NKD2 (5′-[…]-3′ (SEQ ID NO: 7) and 5′[…]-3′ (SEQ ID NO: 8)), WIF-1 (5′-[…]-3′ (SEQ ID NO: 9) and 5′-[…]-3′ (SEQ ID NO: 10)), and GAPDH (5′-[…]-3′ (SEQ ID NO: 11) and 5′-[…]-3′ (SEQ ID NO: 12)).
(§2) M2 cells were treated with 5 μM SS, 200 ng/ml Shh, or control vehicle for 48 h. RNA was isolated and analyzed by Q-RT-PCR for Nkd2 (E) and WIF-1 (F) expression (See FIGS. 4E and 4F).
(§3) M2 cells were pre-treated for 2 h with vehicle or cyclopamine (Cyc) at the concentrations indicated. Next, cells were treated with 5 μM SS or control vehicle for 48 h. RNA was isolated and analyzed for Nkd2 (A) and WIF-1 (B) expression by Q-RT-PCR (See FIGS. 5A and 5B).
(§4) M2 cells were pre-treated for 2 h with Dkk-1 or vehicle. Next, cells were treated with 5 μM SS or control vehicle for 48 h. RNA was isolated and analyzed for Nkd2 (C), Wif-1 (D), and Ptch (E) expression (See FIGS. 5C-5E).
(§5) M2 cells were pre-treated for 2 h with 5 μM LY, 2.5 μM Wm, or vehicle followed by treatment with 5 μM SS or control vehicle for 48 h. RNA was isolated and analyzed for Nkd2 (FIG. 7E) and Wif-1 (FIG. 7F) expression.

[4] = test system: Naked Cuticle 2 (Nkd2) mRNA expression; assay type: cell-based; settings: M2 cells pre-treated 2 h with inhibitor, then 5 μM SS for 48 h
Procedure: as §1, §2, §3, §4, §5

[5] = read-out: Fold Induction in alkaline phosphatase activity compared to control untreated cells
[6] = read-out: Fold Induction in alkaline phosphatase activity over control untreated cells

Compound | fold induction at 2.5 µM [1, 5] | fold induction at 5 µM [1, 5] | Osteoinductive property (marrow stromal cells) | further results
CC(C)C/C=C/[C@](C)(O)C1CC[C@H]2[C@@H]3CC=C4C[C@@H](O)CC[C@]4(C)[C@H]3CC[C@]12C (stereo partly drawn) [Oxy20, (3S,8S,9S,10R,13S,14S)-17-((S,E)-2-hydroxy-6-methylhept-3-en-2-yl)-10,13-dimethyl-2,3,4,7,8,9,10,11,12,13,14,15,16,17-tetradecahydro-1H-cyclopenta[a]phenanthren-3-ol] | 36 | 68 | – | –
C[C@]12CCC3C(CC=C4C[C@@H](O)CC[C@@]43C)C1CCC2[C@@](C)(O)CCCc1ccccc1 (stereo partly shown) [Oxy22] | 4 | 9 | osteoinductive | –
C[C@]12CC[C@H]3[C@@H](CC=C4C[C@@H](O)CC[C@@]43C)[C@@H]1CC[C@@H]2[C@@](C)(O)CC#Cc1cccs1 [Oxy26, (3S,8S,9S,10R,13S,14S,17S)-17-((S)-2-Hydroxy-5-(thiophen-2-yl)pent-4-yn-2-yl)-10,13-dimethyl-2,3,4,7,8,9,10,11,12,13,14,15,16,17-tetradecahydro-1H-cyclopenta-[a]phenanthren-3-ol] | 27 | 76 | osteoinductive | –
C[C@]12CC[C@H]3[C@@H](CC=C4C[C@@H](O)CC[C@@]43C)[C@@H]1CC[C@@H]2[C@@](C)(O)CCc1ccccc1 [Oxy27, (3S,8S,9S,10R,13S,14S,17S)-17-((S)-2-Hydroxy-4-phenylbutan-2-yl)-10,13-dimethyl-2,3,4,7,8,9,10,11,12,13,14,15,16,17-tetradecahydro-1H-cyclopenta[a]phenanthren-3-ol] | 17 | 42 | osteoinductive | –
CC(=O)O[C@H]1CC2C3CCC([C@@](C)(O)CCCC(C)C)[C@@]3(C)CCC2[C@@]2(C)CC[C@H](O)C[C@H]12 (stereo partly shown) [Oxy28] | 59 | 75 | osteoinductive | –
C[C@]12CC[C@H]3[C@@H](CC=C4C[C@@H](O)CC[C@@]43C)[C@@H]1CC[C@@H]2[C@@](C)(O)CCc1ccccc1F [Oxy39, (3S,8S,9S,10R,13S,14S,17S)-17-((S)-4-(2-Fluorophenyl)-2-hydroxybutan-2-yl)-10,13-dimethyl-2,3,4,7,8,9,10,11,12,13,14,15,16,17-tetradecahydro-1H-cyclopenta[a]phen-anthren-3-ol] | 52 | 148 | osteoinductive | –
CC(CO)CCC[C@](C)(O)[C@H]1CC[C@H]2[C@@H]3CC=C4C[C@@H](O)CC[C@]4(C)[C@H]3CC[C@@]21C (stereo partly shown) [Oxy40] | 28 | 105 | osteoinductive | –
C=C(C)CCC[C@](C)(O)[C@H]1CC[C@H]2[C@@H]3C[C@H](OC(C)=O)[C@H]4C[C@@H](O)CC[C@]4(C)[C@H]3CC[C@@]21C [Oxy41, (3S,5S,6S,8R,9S,10R,13S,14S,17S)-3-Hydroxy-17-((S)-2-hydroxy-6-methylhept-6-en-2-yl)-10,13-dimethylhexadecahydro-1H-cyclopenta[a]phenanthren-6-yl acetate] | 46 | 175 | osteoinductive | –
C[C@]12CC[C@H]3[C@@H](CC=C4C[C@@H](O)CC[C@@]43C)[C@@H]1CC[C@@H]2[C@@](C)(O)CCCc1cccs1 [Oxy42, (3S,8S,9S,10R,13S,14S,17S)-17-((S)-2-Hydroxy-5-(thiophen-2-yl)pentan-2-yl)-10,13-dimethyl-2,3,4,7,8,9,10,11,12,13,14,15,16,17-tetradecahydro-1H-cyclopenta[a]phen-anthren-3-ol] | 166 | 290 | osteoinductive | –
CC(CO)CCC[C@](C)(O)[C@H]1CC[C@H]2[C@@H]3C[C@H](O)[C@H]4C[C@@H](O)CC[C@]4(C)[C@H]3CC[C@@]21C (stereo partly drawn) [Oxy48, (3S,5S,6S,8R,9S,10R,13S,14S,17S)-17-((2S)-2,7-Dihydroxy-6-methylheptan-2-yl)-10,13-dimethylliexadecahydro-1H-cyclopenta[a]phenanthrene-3,6-diol] | 11 | 43 | osteoinductive | –
C[C@]12CC[C@H](O)C[C@@H]1[C@@H](O)C[C@@H]1[C@@H]2CC[C@@]2(C)[C@H]1CC[C@@H]2[C@@](C)(O)CCCc1cccs1 [Oxy50, (3S,5S,6S,8R,9S,10R,13S,14S,17S)-17-((S)-2-hydroxy-5-(thiophen-2-yl)pentan-2-yl)-10,13-dimethylhexadecahydro-1H-cyclopenta[a]phenanthrene-3,6-diol] | – | – | osteoinductive | fold induction at 1.25 µM [1, 6]: 25; fold induction at 2.5 µM [1, 6]: 65
C[C@]12CC[C@H](O)C[C@@H]1[C@@H](O)C[C@@H]1[C@@H]2CC[C@@]2(C)[C@H]1CC[C@@H]2[C@@](C)(O)CC#Cc1cccs1 [Oxy51, (3S,5S,6S,8R,9S,10R,13S,14S,17S)-17-((S)-2-hydroxy-5-(thiophen-2-yl)pent-4-yn-2-yl)-10,13-dimethylhexadecahydro-1H-cyclopenta[a]phenanthrene-3,6-diol] | – | – | osteoinductive | Alkaline phosphatase activity versus control vehicle (significance) [1]: not significant; fold induction at 1.25 µM [1, 6]: 3; fold induction at 2.5 µM [1, 6]: 20
C[C@]12CC[C@H](O)C[C@@H]1[C@@H](O)C[C@@H]1[C@@H]2CC[C@@]2(C)[C@H]1CC[C@@H]2[C@@](C)(O)CCc1ccccc1 [Oxy52, (3S,5S,6S,8R,9S,10R,13S,14S,17S)-17-((S)-2-hydroxy-4-phenylbutan-2-yl)-10,13-dimethylhexadecahydro-1H-cyclopenta[a]phenanthrene-3,6-diol] | – | – | osteoinductive | fold induction at 1.25 µM [1, 6]: 5; fold induction at 2.5 µM [1, 6]: 22
C[C@]12CC[C@H](O)C[C@@H]1[C@@H](O)C[C@@H]1[C@@H]2CC[C@@]2(C)[C@H]1CC[C@@H]2[C@@](C)(O)CCCc1ccccc1 [Oxy53, (3S,5S,6S,8R,9S,10R,13S,14S,17S)-17-((S)-2-hydroxy-5-phenylpentan-2-yl)-10,13-dimethylhexadecahydro-1H-cyclopenta[a]phenanthrene-3,6-diol] | – | – | osteoinductive | Alkaline phosphatase activity versus control vehicle (significance) [1]: not significant; fold induction at 1.25 µM [1, 6]: 2; fold induction at 2.5 µM [1, 6]: 11
CC1=C2C[C@H]3[C@@H](CC=C4C[C@@H](O)CC[C@@]43C)[C@@H]2CC[C@]12O[C@@H]1C[C@H](C)CN[C@H]1[C@H]2C [cyclopamine, reference compound] | – | – | – | Inhibition of oxysterol-induced Patched (Ptch) mRNA expression [2]: completely abolished; Inhibition of oxysterol-induced Wif-1 expression [3]: completely blocked; Inhibition of oxysterol-induced Nkd2 expression [4]: did not inhibit
